How the values were obtained:
[1] = biological target: HIV-1 protease (Human immunodeficiency virus type 1 group M subtype B, UniProt P04585); conditions: Phase I studies; cited from earlier work
[2] = test system: duck HBV; conditions: preclinical; cited from earlier work
[3] = test system: HIV-1-LAI strain; assay: in vitro anti-HIV-1 activity in PHA-P-activated PBMCs, RT activity in cell supernatants; type: cell-based
Method: Healthy PBMCs were separated from a buffy-coat of one HIV-seronegative blood donor by Ficoll-Hypaque density gradient centrifugation. PBMCs were activated by 1 μg/ml phytohemagglutinin (PHA-P) for two days in cell culture medium A: RPMI 1640 supplemented with 10% heat-inactivated (+56° C., 45 min.) fetal calf plasma (FCS), 2 mM L-glutamine and a tri-antibiotic mixture (penicillin, streptomycin, neomycin; PSN). After these two days, cells were washed and cultured at one million cell per milliliter in cell culture medium B: cell culture medium A supplemented with 20 IU/ml recombinant human interleukin-2. Cells were maintained at +37° C. in a 5% CO2-air humidified atmosphere.
Experiments were repeated twice with cells of other blood donors. In total, three independent experiments were performed. […]
200,000 PHA-P-activated PBMCs were added to each well of 96-well microplates. […] At day 7, RT activity were determined in cell supernatants, and potential cytotoxic effects of drugs and drug combinations were evaluated by microscopic observation.
Viral replication was measured by determining reverse transcriptase (“RT”) activity in cell supernatants using Retro-Sys® kit, according to manufacturer's recommendations (Innovagen, Lund, Sweden).
Effective doses were calculated using cumulative RT activities with Chou J. and T C. microcomputer software.

[4] = preclinical; po and IV; cited from earlier work
[5] = test system: HIV-1; conditions: clinical use; cited from earlier work

Compound: Cc1cccc(C)c1OCC(=O)N[C@@H](Cc1ccccc1)[C@@H](O)C[C@H](Cc1ccccc1)NC(=O)[C@H](C(C)C)N1CCCNC1=O [ABT-378]
- potency relative to ritonavir [1]: ^9Phase I Studies show ABT-378 to be 10X more potent than ritonavir; see PharmaProjects sections J5A & J5Z.

Compound: beta-L-2′, 3′-dicleoxy-5-fluorocytidene [Beta-L-FD4]
- activity in duck HBV model [2]: ^9Preclinical; active in duck HBV model; see PharmaProjects, sections J5A & J5Z

Compound: PEG12000-IFN-alfa2b: conjugate of interferon alfa-2b with polyethylene glycol of average molecular weight 12000 via a urethane linkage
- effect on the in vitro anti HIV-1 activity of ribavirin ([3]; PHA-P-activated PBMCs infected with HIV-1-LAI): increased the in vitro anti HIV-1 activity of ribavirin
- inhibition of HIV replication in vitro ([3]; PHA-P-activated PBMCs, doses corresponding to plasmatic concentrations observed in animals and man): inhibited the HIV replication

Compound: Nc1nc(N)c2ncn([C@H]3CO[C@@H](CO)O3)c2n1 [DAPD, (−)-beta-D-2,6,-diaminopurine dioxolane]
- activity by route of administration [4]: ^10Preclinical; active po and IV; DAPD is a prodrug of another dioxolene purine, DXG. See PharmaProjects, sections J5A & J5Z

Compound: CC(C)c1nc(CN(C)C(=O)N[C@H](C(=O)N[C@@H](Cc2ccccc2)C[C@H](O)[C@H](Cc2ccccc2)NC(=O)OCc2cncs2)C(C)C)cs1 [Ritonavir]
- adverse effects [5]: troublesome adverse effects

From patent publication US20020182179A1, “HIV Therapy” (priority 1999, published 2002)
